The record followed here is patent US20250122191A1, “COMPOUNDS AS BCL-2 INHIBITORS” (Fochon Biosciences, Ltd, priority 2021, published 2025).

Format in all cases: cell-based
In experiment [1] the test system is RS4;11-BCL-2 D103Y cells. Put plainly: Cell proliferation assay (MTS), RS4;11-BCL-2 D103Y engineered cells. The following applies: Homo sapiens, 72 h, read-out: RS4, 11 BCL2-D103Y IC50. An excerpt:
MTS testing kit was purchased from Promega (Madison, WI, USA). The RPMI-1640, Fetal bovine serum and Penicillin-Streptomycin were purchased from BI (Biological Industries, Beit Haemek, Israel). Puromycin was purchased from Beyotime (shanghai, China). Dimethyl sulfoxide (DMSO) was purchased from Sigma (St. Louis., MO, USA). RS4;11-BCL-2 G101V (Cobioer Lot. #: CBD2021063013P4), RS4;11-BCL-2 D103E (Cobioer Lot. #: CBD2021063013P4), RS4;11-BCL-2 D103Y (Cobioer Lot. #: CBD2022012101P4) and RS4;11-BCL-2 F104L (Cobioer Lot. #: CBD2021063014P4) cells were cultured in RPMI1640 supplemented with 1 ug/mL puromycin, 100 U/mL Penicillin-Streptomycin and 10% FBS.
To investigate whether a compound is able to inhibit the activity of BCL-2 mutation in cells, a mechanism-based assay using engineered cell lines stably overexpressing BCL-2 mutation (RS4;11-BCL-2 G101V, RS4;11-BCL-2 D103E, RS4;11-BCL-2 D103Y, and RS4;11-BCL-2 F104L) was developed. In this assay, the inhibition of BCL-2 mutation was reflected by the inhibition of cell proliferation of engineered RS4;11 cells. Cells were plated into 96-well plates at optimized cell density (RS4;11-BCL-2 G101V: 5000 cells/well; RS4;11-BCL-2 D103E: 7500 cells/well; RS4;11-BCL-2 D103Y: 7500 cells/well; RS4;11-BCL-2 F104L: 5000 cells/well). Plates were incubated at 37° C., with 5% CO2 for 4 h (RS4;11-BCL-2 G101V, RS4;11-BCL-2 F104L) and 24 h (RS4;11-BCL-2 D103E, RS4;11-BCL-2 D103Y), respectively. Compounds were serially diluted and added to the plates with the final concentrations of 10000, 3333.3, 1111.1, 370.4, 123.5, 41.2, 13.7, 4.6 and 1.5 nM. Plates were incubated at 37° C., with 5% CO2 for 120 h (RS4; 11-BCL-2 G101V, RS4; 11-BCL-2 F104L) and 72 h (RS4;11-BCL-2 D103E, RS4;11-BCL-2 D103Y), respectively. 20 μl MTS was added into each well and the plates were incubated at 37° C., with 5% CO2 exactly for 2 h. The absorbance was measured by a microplate reader at 490 nm. IC50 values were calculated using GraphPad Prism 8.0 software.

Experiment [2] deals with RS4;11-BCL-2 D103E cells. Kind of experiment: Cell proliferation assay (MTS), RS4;11-BCL-2 D103E engineered cells. The following applies: Homo sapiens, 72 h, read-out: RS4, 11 BCL2-D103E IC50. In a few lines:
(§1)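 Proliferation IC50 in RS4;11 lines engineered with BCL-2 mutations, measured by MTS at 490 nm after 72 h (D103E, D103Y) or 120 h (G101V, F104L) compound treatment at 37 °C.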

Experiment [3] concerns RS4;11-BCL-2 G101V cells. Kind of experiment: Cell proliferation assay (MTS), RS4;11-BCL-2 G101V engineered cells. The following applies: Homo sapiens, 120 h, read-out: RS4, 11 BCL2-G101V IC50. The method in brief:
as §1

For experiment [4], the system named is RS4;11-BCL-2 F104L cells. Kind of experiment: Cell proliferation assay (MTS), RS4;11-BCL-2 F104L engineered cells. The following applies: Homo sapiens, 120 h, read-out: RS4, 11 BCL2-F104L IC50. The method in brief:
as §1

For experiment [5], the system named is Toledo cells. Put plainly: Cell proliferation assay (MTS), Toledo cells. The following applies: Homo sapiens, 72 h. In a few lines:
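Toledo cells (RPMI-1640, 10% FBS) seeded at 30000 cells/well, rested 4 h, then exposed 72 h at 37 °C, 5% CO2 to compound at nine final concentrations, 1.5–10000 nM. Viability by MTS (2 h), absorbance at 490 nm. IC50 from the concentration-response.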

As for `COc1cc(CN2CCN(C3CC4(CCN(c5ccc(C(=O)NS(=O)(=O)c6cnc(NC[C@H]7CC[C@](C)(O)CC7)c([N+](=O)[O-])c6)c(Oc6cc7c(F)c[nH]c7nc6OC)c5)CC4)C3)[C@H](c3ccccc3C(C)C)C2)ncc1C1CC1` [Example 249, 4-(2-((R)-4-((5-cyclopropyl-4-methoxypyridin-2-yl)methyl)-2-(2-isopropylphenyl)piperazin-1-yl)-7-azaspiro[3.5]nonan-7-yl)-2-((3-fluoro-6-methoxy-1H-pyrrolo[2,3-b]pyridin-5-yl)oxy)-N-((6-((((1r,4r)-4-hydroxy-4-methylcyclohexyl)methyl)amino)-5-nitropyridin-3-yl)sulfonyl)benzamide], the figures for the IC50 in experiment [1], in experiment [2] and in experiment [3] were 5 nM, 1 nM and 1 nM, respectively.

Turning to `COc1ccc(CN2CCN(C3CC4(CCN(c5ccc(C(=O)NS(=O)(=O)c6cnc(NC[C@H]7CC[C@](C)(O)CC7)c([N+](=O)[O-])c6)c(Oc6cc7c(F)c[nH]c7nc6OC)c5)CC4)C3)[C@H](c3ccccc3C(C)C)C2)cn1` [Example 119, 2-((3-fluoro-6-methoxy-1H-pyrrolo[2,3-b]pyridin-5-yl)oxy)-N-((6-((((1r,4r)-4-hydroxy-4-methylcyclohexyl)methyl)amino)-5-nitropyridin-3-yl)sulfonyl)-4-(2-((R)-2-(2-isopropylphenyl)-4-((6-methoxypyridin-3-yl)methyl)piperazin-1-yl)-7-azaspiro[3.5]nonan-7-yl)benzamide], the IC50 in experiment [1] is 10 nM; in experiment [2], 1 nM; in experiment [3], 1 nM; in experiment [4], 3 nM; in experiment [5], 1 nM.

For the compound `COc1cc(CN2CCN(C3CC4(CCN(c5ccc(C(=O)NS(=O)(=O)c6cnc(NC[C@H]7CC[C@](C)(O)CC7)c([N+](=O)[O-])c6)c(Oc6cc7c(F)c[nH]c7nc6OC)c5)CC4)C3)[C@H](c3ccccc3C(C)C)C2)cnc1C1CC1` [Example 254, 4-(2-((R)-4-((6-cyclopropyl-5-methoxypyridin-3-yl)methyl)-2-(2-isopropylphenyl)piperazin-1-yl)-7-azaspiro[3.5]nonan-7-yl)-2-((3-fluoro-6-methoxy-1H-pyrrolo[2,3-b]pyridin-5-yl)oxy)-N-((6-((((1r,4r)-4-hydroxy-4-methylcyclohexyl)methyl)amino)-5-nitropyridin-3-yl)sulfonyl)benzamide], the IC50 in experiment [1] came to 3 nM; in experiment [3], 1 nM; in experiment [4], 3 nM; in experiment [5], 1 nM.

For `COc1nc2[nH]cc(F)c2cc1Oc1cc(N2CCC3(CC2)CC(N2CCN(Cc4ccncc4)C[C@H]2c2ccccc2C(C)C)C3)ccc1C(=O)NS(=O)(=O)c1cnc(NC[C@H]2CC[C@](C)(O)CC2)c([N+](=O)[O-])c1` [Example 239, 2-((3-fluoro-6-methoxy-1H-pyrrolo[2,3-b]pyridin-5-yl)oxy)-N-((6-((((1r,4r)-4-hydroxy-4-methylcyclohexyl)methyl)amino)-5-nitropyridin-3-yl)sulfonyl)-4-(2-((R)-2-(2-isopropylphenyl)-4-(pyridin-4-ylmethyl)piperazin-1-yl)-7-azaspiro[3.5]nonan-7-yl)benzamide], the IC50 in experiment [1] was determined as 8 nM; in experiment [3], 1 nM; in experiment [4], 1 nM; in experiment [5], 1 nM.

For `COc1cc(CN2CCN(C3CC4(CCN(c5ccc(C(=O)NS(=O)(=O)c6cnc(NC[C@H]7CC[C@](C)(O)CC7)c([N+](=O)[O-])c6)c(Oc6cnc7[nH]cc(F)c7c6)c5)CC4)C3)[C@H](c3ccccc3C(C)C)C2)cnc1C1CC1` [Example 255, 4-(2-((R)-4-((6-cyclopropyl-5-methoxypyridin-3-yl)methyl)-2-(2-isopropylphenyl)piperazin-1-yl)-7-azaspiro[3.5]nonan-7-yl)-2-((3-fluoro-1H-pyrrolo[2,3-b]pyridin-5-yl)oxy)-N-((6-((((1r,4r)-4-hydroxy-4-methylcyclohexyl)methyl)amino)-5-nitropyridin-3-yl)sulfonyl)benzamide], the IC50 in experiment [1] is 1 nM; in experiment [2], 3 nM; in experiment [3], 1 nM; in experiment [4], 3 nM; in experiment [5], 1 nM.

Consider `COc1ccc(CN2CCN(C3CC4(CCN(c5ccc(C(=O)NS(=O)(=O)c6cnc(NC[C@H]7CC[C@](C)(O)CC7)c([N+](=O)[O-])c6)c(Oc6cc7c(F)c[nH]c7nc6OC)c5)CC4)C3)[C@H](c3ccccc3C(C)C)C2)cc1OC` [Example 7, 4-(2-((R)-4-(3,4-dimethoxybenzyl)-2-(2-isopropylphenyl)piperazin-1-yl)-7-azaspiro[3.5]nonan-7-yl)-2-((3-fluoro-6-methoxy-1H-pyrrolo[2,3-b]pyridin-5-yl)oxy)-N-((6-((((1r,4r)-4-hydroxy-4-methylcyclohexyl)methyl)amino)-5-nitropyridin-3-yl)sulfonyl)benzamide], for which the IC50 turned out to be 9 nM in experiment [1]; 2 nM in experiment [2]; 1 nM in experiment [3]; 1 nM in experiment [4]; 1 nM in experiment [5].

As to `COc1ccc(CN2CCN(C3CC4(CCN(c5ccc(C(=O)NS(=O)(=O)c6cnc(NC[C@H]7CC[C@](C)(O)CC7)c([N+](=O)[O-])c6)c(Oc6cnc7[nH]cc(F)c7c6)c5)CC4)C3)[C@H](c3ccccc3C(C)C)C2)cc1OC` [Example 74, 4-(2-((R)-4-(3,4-dimethoxybenzyl)-2-(2-isopropylphenyl)piperazin-1-yl)-7-azaspiro[3.5]nonan-7-yl)-2-((3-fluoro-1H-pyrrolo[2,3-b]pyridin-5-yl)oxy)-N-((6-((((1r,4r)-4-hydroxy-4-methylcyclohexyl)methyl)amino)-5-nitropyridin-3-yl)sulfonyl)benzamide], the IC50 in experiment [1] amounted to 5 nM; in experiment [2], 1 nM; in experiment [3] it was 1 nM; in experiment [5], 1 nM.
